# Measured values reported in patent US20240158446A1, “CYCLIC COMPOUND HAVING SELECTIVE INHIBITORY ACTION ON KRAS OVER HRAS AND NRAS” (CHUGAI SEIYAKU KABUSHIKI KAISHA, priority 2021, published 2024).
# Legend:
# [1] = target: GDP-bound KRAS wild-type protein (Homo sapiens, UniProt P01116); assay: Binding to KRAS by surface plasmon resonance (SPR), Single Cycle Kinetics; details: SPR, Single Cycle Kinetics, GDP-bound KRAS wild-type protein; read-out: KRAS KD
# [2] = target: GDP-bound NRAS wild-type protein (Homo sapiens, UniProt P01111); assay: Binding to NRAS by surface plasmon resonance (SPR), Single Cycle Kinetics; details: SPR, GDP-bound NRAS wild-type protein vs GDP-bound KRAS wild-type protein
# [3] = target: GDP-bound HRAS wild-type protein (Homo sapiens, UniProt P01112); assay: Binding to HRAS by surface plasmon resonance (SPR), Single Cycle Kinetics; details: SPR, GDP-bound HRAS wild-type protein vs GDP-bound KRAS wild-type protein
# Sequence of GDP-bound HRAS wild-type protein (P01112 whole entry): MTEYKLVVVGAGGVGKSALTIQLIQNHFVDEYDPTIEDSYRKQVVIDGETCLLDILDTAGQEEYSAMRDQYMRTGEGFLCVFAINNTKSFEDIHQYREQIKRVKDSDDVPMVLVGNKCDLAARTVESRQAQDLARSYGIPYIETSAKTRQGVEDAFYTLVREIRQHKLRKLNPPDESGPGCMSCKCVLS
# Sequence of GDP-bound NRAS wild-type protein (P01111 whole entry): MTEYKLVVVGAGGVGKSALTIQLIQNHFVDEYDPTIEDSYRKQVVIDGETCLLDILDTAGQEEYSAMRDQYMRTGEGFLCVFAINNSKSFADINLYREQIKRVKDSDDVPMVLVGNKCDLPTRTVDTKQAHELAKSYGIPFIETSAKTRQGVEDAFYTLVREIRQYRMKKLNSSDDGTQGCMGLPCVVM
# Sequence of GDP-bound KRAS wild-type protein (P01116 whole entry): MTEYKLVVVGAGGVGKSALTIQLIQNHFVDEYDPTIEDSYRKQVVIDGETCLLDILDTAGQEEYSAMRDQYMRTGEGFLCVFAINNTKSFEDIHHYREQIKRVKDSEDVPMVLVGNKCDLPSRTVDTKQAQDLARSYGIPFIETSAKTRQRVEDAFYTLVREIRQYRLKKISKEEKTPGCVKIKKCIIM
Kd [1],Structure (SMILES),NRAS/KRAS (ratio of KD value for NRAS to KD value for KRAS) [2],HRAS/KRAS (ratio of KD value for HRAS to KD value for KRAS) [3]
0.43 nM,CCO[C@@H]1C[C@H]2C(=O)NC3(CCC3)C(=O)N(C)[C@@H](C3CCCC3)C(=O)N(C)[C@H](C(=O)N(C)C)CC(=O)N(C)[C@@H](Cc3cccc(F)c3)C(=O)N[C@@H]([C@@H](C)CC)C(=O)N(C)CC(=O)N(C)[C@H]3CCCCCN(C3=O)[C@@H](Cc3ccc(C(F)(F)F)cc3)C(=O)N(C)CC(=O)N[C@@H](CCc3cc(F)c(C(F)(F)F)c(F)c3)C(=O)N2C1 [PP0935],B (a compound having 3 or more and less than 10 is denoted as B),B (a compound having 3 or more and less than 10 is denoted as B)
0.42 nM,CCO[C@@H]1C[C@H]2C(=O)NC3(CCC3)C(=O)N(C)[C@@H](C3CCCC3)C(=O)N(C)[C@H](C(=O)N(C)C)CC(=O)N(C)[C@@H](Cc3ccc(F)cc3)C(=O)N[C@@H]([C@@H](C)CC)C(=O)N(C)CC(=O)N(C)[C@H]3CCCCCN(C3=O)[C@@H](Cc3ccc(C(F)(F)F)cc3)C(=O)N(C)CC(=O)N[C@@H](CCc3cc(F)c(C(F)(F)F)c(F)c3)C(=O)N2C1 [PP0936],B (a compound having 3 or more and less than 10 is denoted as B),B (a compound having 3 or more and less than 10 is denoted as B)
0.91 nM,CCO[C@@H]1C[C@H]2C(=O)NC3(CCC3)C(=O)N(C)[C@@H](C3CCCC3)C(=O)N(C)[C@H](C(=O)N(C)C)CC(=O)N(C)[C@@H](Cc3cccc(Cl)c3)C(=O)N[C@@H]([C@@H](C)CC)C(=O)N(C)CC(=O)N(C)[C@H]3CCCCCN(C3=O)[C@@H](Cc3ccc(C(F)(F)F)cc3)C(=O)N(C)CC(=O)N[C@@H](CCc3cc(F)c(C(F)(F)F)c(F)c3)C(=O)N2C1 [PP0939],B (a compound having 3 or more and less than 10 is denoted as B),B (a compound having 3 or more and less than 10 is denoted as B)
2 nM,CCO[C@@H]1C[C@H]2C(=O)NC3(CCC3)C(=O)N(C)[C@@H](C3CCCC3)C(=O)N(C)[C@H](C(=O)N(C)C)CC(=O)N(C)[C@@H](Cc3ccc(Cl)cc3)C(=O)N[C@@H]([C@@H](C)CC)C(=O)N(C)CC(=O)N(C)[C@H]3CCCCCN(C3=O)[C@@H](Cc3ccc(C(F)(F)F)cc3)C(=O)N(C)CC(=O)N[C@@H](CCc3cc(F)c(C(F)(F)F)c(F)c3)C(=O)N2C1 [PP0940],B (a compound having 3 or more and less than 10 is denoted as B),C (A compound having a KD ratio of 0.1 or more and less than 3 is denoted as C)
0.99 nM,CCO[C@@H]1C[C@H]2C(=O)NC3(CCC3)C(=O)N(C)[C@@H](C3CCCC3)C(=O)N(C)[C@H](C(=O)N(C)C)CC(=O)N(C)[C@@H](Cc3cccc(C)c3)C(=O)N[C@@H]([C@@H](C)CC)C(=O)N(C)CC(=O)N(C)[C@H]3CCCCCN(C3=O)[C@@H](Cc3ccc(C(F)(F)F)cc3)C(=O)N(C)CC(=O)N[C@@H](CCc3cc(F)c(C(F)(F)F)c(F)c3)C(=O)N2C1 [PP0942],B (a compound having 3 or more and less than 10 is denoted as B),B (a compound having 3 or more and less than 10 is denoted as B)
1.1 nM,CCO[C@@H]1C[C@H]2C(=O)NC3(CCC3)C(=O)N(C)[C@@H](C3CCCC3)C(=O)N(C)[C@H](C(=O)N(C)C)CC(=O)N(C)[C@@H](Cc3ccc(C)cc3)C(=O)N[C@@H]([C@@H](C)CC)C(=O)N(C)CC(=O)N(C)[C@H]3CCCCCN(C3=O)[C@@H](Cc3ccc(C(F)(F)F)cc3)C(=O)N(C)CC(=O)N[C@@H](CCc3cc(F)c(C(F)(F)F)c(F)c3)C(=O)N2C1 [PP0943],B (a compound having 3 or more and less than 10 is denoted as B),B (a compound having 3 or more and less than 10 is denoted as B)
3.9 nM,CCO[C@@H]1C[C@H]2C(=O)NC3(CCC3)C(=O)N(C)[C@@H](C3CCCC3)C(=O)N(CC)[C@H](C(=O)N3CCOCC3)CC(=O)N(C)[C@@H](CC)C(=O)N[C@@H]([C@@H](C)CC)C(=O)N(C)CC(=O)N(C)[C@H]3CCCCCN(C3=O)[C@@H](Cc3ccc(C(F)(F)F)cc3)C(=O)N(C)CC(=O)N[C@@H](CCc3cc(F)c(C(F)(F)F)c(F)c3)C(=O)N2C1 [PP0944],A (a compound having 10 or more and less than 20 is denoted as A),A (a compound having 10 or more and less than 20 is denoted as A)
3.7 nM,CCO[C@@H]1C[C@H]2C(=O)NC3(CCC3)C(=O)N(C)[C@@H](C3CCCC3)C(=O)N(CC)[C@H](C(=O)N3CCOCC3)CC(=O)N(C)[C@@H](CO)C(=O)N[C@@H]([C@@H](C)CC)C(=O)N(C)CC(=O)N(C)[C@H]3CCCCCN(C3=O)[C@@H](Cc3ccc(C(F)(F)F)cc3)C(=O)N(C)CC(=O)N[C@@H](CCc3cc(F)c(C(F)(F)F)c(F)c3)C(=O)N2C1 [PP0945],B (a compound having 3 or more and less than 10 is denoted as B),A (a compound having 10 or more and less than 20 is denoted as A)
6 nM,CCO[C@@H]1C[C@H]2C(=O)NC3(CCC3)C(=O)N(C)[C@@H](C3CCCC3)C(=O)N(CC)[C@H](C(=O)N3CCOCC3)CC(=O)N(C)[C@@H](Cc3ccccc3)C(=O)N[C@@H]([C@@H](C)CC)C(=O)N(C)CC(=O)N(C)[C@H]3CCCCCN(C3=O)[C@@H](Cc3ccc(C(F)(F)F)cc3)C(=O)N(C)CC(=O)N[C@@H](CCc3cc(F)c(C(F)(F)F)c(F)c3)C(=O)N2C1 [PP0950],A (a compound having 10 or more and less than 20 is denoted as A),B (a compound having 3 or more and less than 10 is denoted as B)

# The remaining lines, values behind:
Structure (SMILES),Kd [1],NRAS/KRAS (ratio of KD value for NRAS to KD value for KRAS) [2],HRAS/KRAS (ratio of KD value for HRAS to KD value for KRAS) [3]
CCO[C@@H]1C[C@H]2C(=O)NC3(CCC3)C(=O)N(C)[C@@H](C3CCCC3)C(=O)N(CC)[C@H](C(=O)N3CCOCC3)CC(=O)N(C)[C@@H](COC)C(=O)N[C@@H]([C@@H](C)CC)C(=O)N(C)CC(=O)N(C)[C@H]3CCCCCN(C3=O)[C@@H](Cc3ccc(C(F)(F)F)cc3)C(=O)N(C)CC(=O)N[C@@H](CCc3cc(F)c(C(F)(F)F)c(F)c3)C(=O)N2C1 [PP0946],2.2 nM,A (a compound having 10 or more and less than 20 is denoted as A),B (a compound having 3 or more and less than 10 is denoted as B)
CCO[C@@H]1C[C@H]2C(=O)NC3(CCC3)C(=O)N(C)[C@@H](C3CCCC3)C(=O)N(CC)[C@H](C(=O)N3CCOCC3)CC(=O)N(C)[C@@H](CCOC)C(=O)N[C@@H]([C@@H](C)CC)C(=O)N(C)CC(=O)N(C)[C@H]3CCCCCN(C3=O)[C@@H](Cc3ccc(C(F)(F)F)cc3)C(=O)N(C)CC(=O)N[C@@H](CCc3cc(F)c(C(F)(F)F)c(F)c3)C(=O)N2C1 [PP0947],3.4 nM,A (a compound having 10 or more and less than 20 is denoted as A),A (a compound having 10 or more and less than 20 is denoted as A)
CCO[C@@H]1C[C@H]2C(=O)NC3(CCC3)C(=O)N(C)[C@@H](C3CCCC3)C(=O)N(CC)[C@H](C(=O)N3CCOCC3)CC(=O)N(C)[C@@H](CCc3ccccc3)C(=O)N[C@@H]([C@@H](C)CC)C(=O)N(C)CC(=O)N(C)[C@H]3CCCCCN(C3=O)[C@@H](Cc3ccc(C(F)(F)F)cc3)C(=O)N(C)CC(=O)N[C@@H](CCc3cc(F)c(C(F)(F)F)c(F)c3)C(=O)N2C1 [PP0953],27 nM,A (a compound having 10 or more and less than 20 is denoted as A),A (a compound having 10 or more and less than 20 is denoted as A)
CC[C@H](C)[C@@H]1NC(=O)[C@H](CC(C)C)N(C)C(=O)C[C@@H](C(=O)N2CCOCC2)N(CC)C(=O)[C@H](C2CCCC2)N(C)C(=O)C2(CCC2)NC(=O)[C@@H]2[C@H](O)CCN2C(=O)[C@H](CCc2cc(F)c(C(F)(F)F)c(F)c2)NC(=O)CN(C)C(=O)[C@H](Cc2ccc(C(F)(F)F)cc2)N2CCCCC[C@@H](C2=O)N(C)C(=O)CN(C)C1=O [PP0955],19 nM,A (a compound having 10 or more and less than 20 is denoted as A),A (a compound having 10 or more and less than 20 is denoted as A)
CCO[C@@H]1C[C@H]2C(=O)NC3(CC=CC3)C(=O)N(C)[C@@H](C3CCCC3)C(=O)N(CC)[C@H](C(=O)N3CCOCC3)CC(=O)N(C)[C@@H](CC(C)C)C(=O)N[C@@H]([C@@H](C)CC)C(=O)N(C)CC(=O)N(C)[C@H]3CCCCCN(C3=O)[C@@H](Cc3ccc(C(F)(F)F)cc3)C(=O)N(C)CC(=O)N[C@@H](CCc3cc(F)c(C(F)(F)F)c(F)c3)C(=O)N2C1 [PP0956],7.2 nM,A (a compound having 10 or more and less than 20 is denoted as A),A (a compound having 10 or more and less than 20 is denoted as A)
CC[C@H](C)[C@@H]1NC(=O)[C@H](COC)N(C)C(=O)C[C@@H](C(=O)N2CCOCC2)N(C)C(=O)[C@H](C2CCCC2)N(C)C(=O)C2(CCCC2)NC(=O)[C@@H]2CCCN2C(=O)[C@H](CCc2ccc(C(F)(F)F)c(Cl)c2)NC(=O)CN(C)C(=O)[C@H](Cc2ccc(F)cc2)N2CCCCC[C@@H](C2=O)N(C)C(=O)CN(C)C1=O [PP0960],0.37 nM,B (a compound having 3 or more and less than 10 is denoted as B),B (a compound having 3 or more and less than 10 is denoted as B)
